Where two headings read alike, the source gives them in different places.
Experiments:
[1] = system: KK mice; test: Hypoglycemic effect in diabetic KK mice (Test Example 1); format: in vivo; settings: Mus musculus, po, 72 h; male KK mice, diet admixture containing 0.03% of the compound, 3 days, plasma glucose vs control group; read-out: Hypoglycemic rate (%)
Description: Six-week-old male KK mice were purchased from CLEA Japan, Inc. and then were fed until 15 to 20 weeks old to develop diabetes. The mice were individually fed during the adaptation period and the test period, and water and feed (FR2, Funabashi Farm) were freely ingested.
At the start of the experiment, after body weight measurement, blood was collected from the tail vein of the mice into a heparin-coated glass tube and centrifuged, and then plasma was separated. The glucose level in the plasma was measured by Glucoloader GXT (A&T Corp.), and individuals having a plasma glucose level of about 350 mg/dl or more were selected. The mice were grouped, each group having 3 to 4 mice, to make the average body weight and the average plasma glucose level similar. Each compound was administered to a compound group with a diet admixture containing 0.03% of the compound. A separate group in which the mice were fed only with diet was a control group.
The experiment period (drug administration period) was three days. The grouping day was the 0th day. On the 3rd day, the body weight was measured and blood was collected from the tail vein to measure the plasma glucose level.
The hypoglycemic rate was determined by the following formula.
Hypoglycemic rate=[(Control group blood glucose level−Compound-administered group blood glucose level)/Control group blood glucose level]×100

[2] = target: T1, GAL4-PPARγ chimeric receptor (Homo sapiens, UniProt P37231); test: Measurement of PPARγ activation effect/modulator activity, GAL4-PPARγ reporter assay in COS-7 cells (Test Example 5); format: cell-based; settings: for Emax: COS-7
T1 construct: containing amino acids 175 to 475 of human PPARγ and a stop codon at the carboxy end; expressed in transfected cells; host or cells: COS-7 (monkey kidney) cells, transfected with pM-PPARγ and pFR-Luc
T1 sequence (P37231 with tags, fused parts or gaps): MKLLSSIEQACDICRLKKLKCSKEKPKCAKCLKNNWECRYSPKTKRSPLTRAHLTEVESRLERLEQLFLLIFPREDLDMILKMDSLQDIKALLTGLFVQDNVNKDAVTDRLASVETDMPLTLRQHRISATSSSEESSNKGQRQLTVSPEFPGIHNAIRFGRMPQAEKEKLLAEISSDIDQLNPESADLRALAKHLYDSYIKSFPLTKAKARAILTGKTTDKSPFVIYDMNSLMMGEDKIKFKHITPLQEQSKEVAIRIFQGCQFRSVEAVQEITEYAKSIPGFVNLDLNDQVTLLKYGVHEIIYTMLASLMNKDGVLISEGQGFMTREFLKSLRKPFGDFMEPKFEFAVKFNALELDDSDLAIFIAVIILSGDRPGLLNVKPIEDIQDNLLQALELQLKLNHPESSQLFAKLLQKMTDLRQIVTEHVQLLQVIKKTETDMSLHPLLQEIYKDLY
Method: The details will be shown below.
The plasmid is a gene that can express a GAL4-PPARγ chimeric receptor in mammalian cells.
The previously acquired plasmid pM-PPARγ and the plasmid pFR-Luc purchased from Stratagene Cloning Systems, Inc. were dissolved in deionised water at a concentration of 1 mg/mL each.
On the following day, the cells were harvested by trypsin treatment, suspended in phenol red-free Dulbecco's modified Eagle's medium containing […] 10% fetal bovine serum, seeded into a white 96-well plate (manufactured by Costar) using the medium in a volume of 95 μL per well, and cultured overnight.
The test compound was dissolved in dimethyl sulfoxide at a concentration of 30 mM. […] Dimethyl sulfoxide was prepared for the control group. Rosiglitazone dissolved in dimethyl sulfoxide at a concentration of 30 mM was prepared for the positive control group. They were diluted 150-fold with the medium, and 5 μL of the dilution was added to the wells in which the cells were grown. The concentrations of the test compound treating the cells ranged from 10 μM to 0.006 nM. After the addition, the cells were cultured overnight.
On the following day, the medium was removed, and Luc Lite (manufactured by PerkinElmer Inc.) was prepared according to the attached document and added at 50 microliters per well. The plates with cells in the Luc Lite was stirred for about 30 minutes. The amount of luminescence in each well was measured as luciferase activity using Analyst (Molecular Devices) for 0.5 second. A dose-dependent curve was drawn.

[3] = system: Rat white adipocytes; test: Adipocyte differentiation promotion test (Test Example 4); format: cell-based; settings: for EC50: 120 h
Method: Rat white adipocytes included in a white adipocyte culture kit purchased from Primary Cell Co., Ltd. were subjected to this test. A medium included in the white adipocyte culture kit purchased from Primary Cell Co., Ltd. was used as a growth medium or a differentiation-inducing medium.
The whole of the transportation medium was extracted immediately after the arrival of the purchased cells. The growth medium was added in an amount of 5 ml(/25 cm^2-flask), and the cells were cultured for one day. Thereafter, a cell suspension (83,000 cells/mL) was prepared using the growth medium. The cell suspension was dispensed to a 96-well type-I collagen-coated microplate (SUMITOMO BAKELITE Co., Ltd.) at 5,000 cells/well (60 μL/well). A well to which only the growth medium not containing cells was dispensed (blank well) was provided as a blank group in each plate.
Further, 1) for the test compound-added group, a 100 μM solution of the test compound in DMSO was diluted 20-fold with the differentiation-inducing medium; this was added at 3 μL/well (final test compound concentration: 100 nM, final DMSO concentration: 0.1% (v/v)) to the wells into which the cells were seeded. […] 3) For the negative control group, DMSO diluted 20-fold with the differentiation-inducing medium was added at 3 μL/well (final DMSO concentration: 0.1% (v/v)) to the wells into which the cells were seeded.
After culturing for five days, the whole of the differentiation-inducing medium was removed from each well, and 60 μL of a 10% (v/v) formaldehyde solution (fixative solution) was added to each well. The cells were incubated at room temperature for 20 minutes. The whole of the fixative solution was removed and 60 μL of a 0.2% (v/v) Triton X-100 solution (Sigma) was dispensed to each well. The cells were incubated at room temperature for five minutes. The whole of the Triton X-100 solution was removed. A fat stain was prepared by dissolving Oil Red 0 (Sigma) in a 60% (v/v) isopropanol solution at 0.3% (w/v), and 60 μL of the fat stain was dispensed to each well. The cells were incubated at room temperature for 10 minutes. The whole of the fat stain was removed, and then 60 μL of a 60% (v/v) isopropanol solution was dispensed and removed. Thus, each well was washed twice. Thereafter, DMSO was added to each well at 100 μL per well, followed by stirring at room temperature for five minutes. […] The degree of adipocyte differentiation (%) of the test compound-added group was calculated assuming that the measured ABS550 of the positive control group was 100% and the measured ABS550 of the negative control group was 0.

[4] = maximum luciferase activity, positive control (Rosiglitazone) 100%, control 0%, read-out: Emax (%)
[5] = COS-7 cells with pM-PPARγ and pFR-Luc, concentration represented by Emax/2, read-out: EC50
[6] = Adipocyte, rat white adipocytes, test compound alone, 5 days, Oil Red O ABS550, read-out: EC50
[7] = Rattus norvegicus, degree of adipocyte differentiation, positive control (Compound A 3.3 nM) 100%, negative control 0, read-out: Emax (%)

Row | SMILES | inhibition in vivo at 0.03 % in diet [1] | Emax [2, 4] | EC50 [2, 5] | EC50 [3, 6] | Emax [3, 7] | EC50 [2] | Emax [2] | Emax ([3]; Rattus norvegicus, Adipocyte) | EC50 ([3]; Rattus norvegicus, Adipocyte)
1 | Cc1cc(Oc2ccc3nc(COc4cccc(C(=O)O)c4)n(C)c3c2)cc(C)c1N.Cl.Cl [Example 2, 3-{[6-(4-Amino-3,5-dimethylphenoxy)-1-methyl-1H-benzimidazol-2-yl]methoxy}benzoic acid dihydrochloride] | 37% | 73.3% | 299000 pM | 4.2 nM | 73% | – | – | – | –
2 | Cl.Cn1c(COc2cccc(C(=O)O)c2)nc2ccc(Oc3cccc(F)c3)cc21 [Example 8, 3-{[6-(3-Fluorophenoxy)-1-methyl-1H-benzimidazol-2-yl]methoxy}benzoic acid hydrochloride] | 29% | 91% | 4.74e+06 pM | 7.4 nM | 75% | – | – | – | –
3 | Cl.Cn1c(COc2cccc(C(=O)O)c2)nc2ccc(Oc3ccc(Cl)c(F)c3)cc21 [Example 10, 3-{[6-(4-Chloro-3-fluorophenoxy)-1-methyl-1H-benzimidazol-2-yl]methoxy}benzoic acid hydrochloride] | 35% | 46.5% | 67000 pM | 6.6 nM | 78% | – | – | – | –
4 | Cl.Cn1c(COc2cccc(C(=O)O)c2)nc2ccc(Oc3ccc(F)c(Cl)c3)cc21 [Example 12, 3-{[6-(3-Chloro-4-fluorophenoxy)-1-methyl-1H-benzimidazol-2-yl]methoxy}benzoic acid hydrochloride] | 30% | 60.2% | 39700 pM | 5.2 nM | 82% | – | – | – | –
5 | Cl.Cn1c(COc2cccc(C(=O)O)c2)nc2ccc(Oc3ccccc3)cc21 [Example 14, 3-[(1-Methyl-6-phenoxy-1H-benzimidazol-2-yl)methoxy]benzoic acid hydrochloride] | 33% | – | – | – | – | 845000 pM | 89.6% | 56% | 20 nM
6 | Cl.Cl.Cn1c(COc2cccc(C(=O)O)c2)nc2ccc(Oc3ccccc3)nc21 [Example 16, 3-[(3-Methyl-5-phenoxy-3H-imidazo[4,5-b]pyridin-2-yl)methoxy]benzoic acid dihydrochloride] | 60% | 60.9% | 550000 pM | 64 nM | 71% | – | – | – | –

Reference: patent US20100048564A1, “FUSED BICYCLIC HETEROARYL DERIVATIVE” (DAIICHI SANKYO COMPANY, LIMITED, priority 2007, published 2010)
